# In patent US20250041272A1, “COMPOSITIONS AND METHODS FOR TREATING CANCER VIA PTP1B INHIBITION” (priority 2021, published 2025):
# What was measured:
# [1] = molecular target: T1, ternary complex of PTP1b with Mer and Stat1 (Mus musculus, UniProt P35821); test: Co-immunoprecipitation of PTP1b or Stat1 from macrophages co-cultured with B16F10 cells; format: cell-based
# T1 construct: endogenous in cells; host or cells: Primary peritoneal macrophages from C57BL/6J mice, stimulated with IFNγ and LPS and co-cultured with B16F10 melanoma cells
# T1 sequence (P35821 1-432): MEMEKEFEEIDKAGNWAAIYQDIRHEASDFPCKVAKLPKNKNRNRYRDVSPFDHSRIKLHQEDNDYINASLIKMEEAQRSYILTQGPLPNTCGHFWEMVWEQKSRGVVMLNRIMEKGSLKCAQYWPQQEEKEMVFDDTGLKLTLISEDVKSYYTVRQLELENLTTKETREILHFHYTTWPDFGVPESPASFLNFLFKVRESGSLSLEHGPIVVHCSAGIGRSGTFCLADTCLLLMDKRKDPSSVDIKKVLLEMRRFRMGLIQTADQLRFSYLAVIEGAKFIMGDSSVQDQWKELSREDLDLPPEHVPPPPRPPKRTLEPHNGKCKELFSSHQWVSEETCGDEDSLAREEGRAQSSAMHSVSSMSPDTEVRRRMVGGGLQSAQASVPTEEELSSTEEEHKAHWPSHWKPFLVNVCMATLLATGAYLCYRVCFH
# Procedure: Coimmunoprecipitation and Western blot. Coimmunoprecipitation was performed using […] A/G agarose beads (Santa Cruz Biotechnology Inc.) and antibodies for PTP1b (Abcam) or STAT1 (Cell signaling). Samples were incubated for 3 days at 4° C. under rotation and washed three times with RIPA buffer before loading them in 10% Mini-PROTEAN TGX stain-free gels (Biorad). After running the electrophoresis in the Mini-PROTEAN Tetra System (Bio-Rad) proteins were transferred to a 0.2-μm nitrocellulose Trans-Blot Mini Turbo Transfer Pack (Bio-Rad) using a Trans-Blot Turbo Transfer System (Bio-Rad). Membranes were blocked with 5% BSA (Fisher scientific) for 1 hour and blotted with antibodies against MyD88 (Cell Signaling), total STAT1 (Cell Signaling), tyrosine 701 phosphorylated STAT1 (Cell signaling), serine 727 phosphorylated STAT1 (Cell signaling), PTP1 b (Abcam) and Mer (Thermo Fisher scientific). Detection was performed with the ECL HPR-linked anti-rabbit antibody (Cell signaling) and the Clarity-Max Western ECL substrate (Bio-Rad). Blots were imaging with ChemiDoc MP Imaging System (Bio-Rad) and quantitated using ImageJ software (NIH).
# [2] = tested on: macrophage pro-inflammatory gene expression; test: DAMP characterization assay: nutrient deprived tumor cell conditioned medium on macrophages; format: cell-based, mouse; details: BVT948 5 μM, 24 hours
# Procedure: DAMP characterization assay. B16F10 or GEMM6 cells were resuspended in DMEM deficient media with 1% penicillin-streptomycin (Gibco) and incubated for 3 days. Conditioned media was collected, filtered with a 0.2 μm filter and incubated with 0.35 U/ml proteinase K-agarose beads (Sigma Millipore) or 40 U/ml of benzonase endonuclease (Sigma Millipore) for 4 hours at 37° C. under rotation. Conditioned media was two-fold diluted with DMEM/F12 with 10% FBS, 1% penicillin-streptomycin (Gibco) and 20 ng/ml of M-CSF (Prospec), supplemented with 5 μM BVT948 (Sigma Millipore) and added to primary mural macrophages for 24 hours.
# qRT-PCR. RNA was isolated using the RNeasy Plus Mini Kit (Quiagen) and cDNA was prepared using the Reverse Transcription System (Promega) with one-hour reverse transcription process. qRT-PCR was done using the PowerUp™ SYBR™ Green Master Mix (Applied Biosystems) on a QuantStudio Pro Real-time PCR system (Applied Biosystems) with a 95° C. pretreatment of 10 min, 50 cycles of 95° C., 10 sec and 60° C., 1 min and melt curve at the end. Analysis was performed with the 2^−ΔΔCT method(136).
# B16F10 tumors = test: Subcutaneous B16F10 melanoma tumor model; format: in vivo, mouse
# Procedure: (§1) Tumor implantation, treatment and harvest. For animal studies, 1*10^5 B16F10 luciferase-tagged melanoma cells, 1*10^6 GEMM6 melanoma cells or 2*10^6 LCC cells were implanted subcutaneously into C57BL/6J mice (randomized, both males and females, 000664 The Jackson laboratory). When indicated, mice received intraperitoneal injections 7 days after implantation with 100 μl of 5 mg/kg cisplatin (Tocris), 100 μl of 10 mg/kg BVT948 (Tocris) or 100 μl of 30 mg/kg of vemurafenib. 5 mice were used per experimental group and tumors were harvested when they reached 1.5 cm in any direction.
# (§2) Immunohistochemistry analysis. Immunohistochemistry assay was carried out in formalin-fixed, paraffin-embedded 4 μm sections using primary antibodies against F4:80 (AbD Serotec), CD11b (Abcam), CD4 (eBioscience) or CD8a (eBioscience) on a Discovery Ultra Automated IHC staining system (Ventana). Sections were then imaged using a ScanScope XT microscope (Aperio) and quantified using Aperio software.
# LLC tumors = test: Subcutaneous LLC tumor model; format: in vivo, mouse
# Procedure: as §1, §2
# [3] = co-immunoprecipitation of Stat1, 24 hours
# [4] = BVT948 10 mg/kg or Cisplatin 5 mg/kg intraperitoneal, treatment from 50 mm^3
# [5] = BVT948 in combination with Cisplatin
substance,measurement,setting,value
BVT948,association of PTP1b with Mer and Stat1,"[1]; co-immunoprecipitation of PTP1b, in the presence of B16F10 cells",reduced the association
same,Stat1 S727 phosphorylation,[1]; [3],restoration of Stat1 S727 phosphorylation
same,ternary complex formation,[1]; [3],reduced ternary complex formation
same,DAMP mediated macrophage activation (pro-inflammatory gene expression),[2]; B16F10 nutrient deprivation conditioned medium,able to restore DAMP mediated macrophage activation
same,pro-inflammatory gene expression,[2]; GEMM6 nutrient deprivation conditioned medium,rescued pro-inflammatory gene expression
same,"B16F10 tumor growth, monotherapy vs vehicle",B16F10 tumors; [4],did not significantly reduce
same,"decrease in B16F10 tumor growth, combination",B16F10 tumors; [5],roughly 50%
same,reduction in tumor viability (H&E staining),"B16F10 tumors; BVT948 monotherapy, B16F10 tumors",20%
same,intra-tumoral immune infiltrate,"B16F10 tumors; BVT948 monotherapy, end-stage B16F10",some increases in macrophage and T cells
same,"LLC tumor growth reduction, monotherapy",LLC tumors; [4],30%
same,"decrease in LLC tumor growth, combination",LLC tumors; [5],roughly 50%
same,tumor viability (H&E staining),"LLC tumors; BVT948 monotherapy, LLC tumors",not significantly changed
